The supplement of paper PMC7287046

Legend:
Conditions in all cases: exposure time: 72 h
SF268 [1] = assay: Bliss synergy score (Combenefit); higher = more synergy; extreme values may be limits of the assay
Description: (§1)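 The same 6x6 dose matrices of drug pairs on glioma cell lines (72 h, CellTiter-Glo viability normalised to DMSO, triplicate) were scored with Combenefit. The Loewe, Bliss and HSA synergy scores are given; paper thresholds are Loewe 7.8 and Bliss 2.5.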

KNS-42 [2] = assay: as above
Description: as §1

U118 [3] = assay: as above
Description: as §1

SNB75 [4] = assay: as above
Description: as §1

T98G [5] = assay: as above
Description: as §1

AM-38 [6] = assay: as above
Description: as §1

U251 [7] = assay: as above
Description: as §1

SF539 [8] = assay: as above
Description: as §1

U87 [9] = assay: as above
Description: as §1

SF268 [10] = assay: Loewe synergy score (Combenefit); higher = more synergy; extreme values may be limits of the assay
Description: as §1

KNS-42 [11] = assay: as above
Description: as §1

U118 [12] = assay: as above
Description: as §1

SNB75 [13] = assay: as above
Description: as §1

T98G [14] = assay: as above
Description: as §1

AM-38 [15] = assay: as above
Description: as §1

U251 [16] = assay: as above
Description: as §1

SF539 [17] = assay: as above
Description: as §1

U87 [18] = assay: as above
Description: as §1

SF268 [19] = assay: HSA synergy score (Combenefit); higher = more synergy
Description: as §1

KNS-42 [20] = assay: as above
Description: as §1

U118 [21] = assay: as above
Description: as §1

SNB75 [22] = assay: as above
Description: as §1

T98G [23] = assay: as above
Description: as §1

AM-38 [24] = assay: as above
Description: as §1

U251 [25] = assay: as above
Description: as §1

SF539 [26] = assay: as above
Description: as §1

U87 [27] = assay: as above
Description: as §1

SF268 [28] = assay: Chou-Talalay combination index (dimensionless); higher = less synergy (more antagonism)
Description: (§2)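 Glioma cell lines were treated for 72 h with a 6x6 matrix of two drugs, each in twofold dilutions with the top dose at the single-drug IC50. Viability was read by CellTiter-Glo and normalised to DMSO controls, in triplicate. The Chou-Talalay combination index was computed by the median effect principle; CI < 0.8 means synergy.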

AM38 = assay: as above
Description: as §2

U118 [29] = assay: as above
Description: as §2

SNB75 [30] = assay: as above
Description: as §2

U251 [31] = assay: as above
Description: as §2

KNS42 = assay: as above
Description: as §2

SF539 [32] = assay: as above
Description: as §2

U87 [33] = assay: as above
Description: as §2

T98 = assay: as above
Description: as §2

SMILES | Bliss synergy score (SF268 [1]) | Bliss synergy score (KNS-42 [2]) | Bliss synergy score (U118 [3]) | Bliss synergy score (SNB75 [4]) | Bliss synergy score (T98G [5]) | Bliss synergy score (AM-38 [6]) | Bliss synergy score (U251 [7]) | Bliss synergy score (SF539 [8]) | Bliss synergy score (U87 [9]) | Loewe synergy score (SF268 [10]) | Loewe synergy score (KNS-42 [11]) | Loewe synergy score (U118 [12]) | Loewe synergy score (SNB75 [13]) | Loewe synergy score (T98G [14]) | Loewe synergy score (AM-38 [15]) | Loewe synergy score (U251 [16]) | Loewe synergy score (SF539 [17]) | Loewe synergy score (U87 [18]) | HSA synergy score (SF268 [19]) | HSA synergy score (KNS-42 [20]) | HSA synergy score (U118 [21]) | HSA synergy score (SNB75 [22]) | HSA synergy score (T98G [23]) | HSA synergy score (AM-38 [24]) | HSA synergy score (U251 [25]) | HSA synergy score (SF539 [26]) | HSA synergy score (U87 [27]) | Chou-Talalay combination index (SF268 [28]) | Chou-Talalay combination index (AM38) | Chou-Talalay combination index (U118 [29]) | Chou-Talalay combination index (SNB75 [30]) | Chou-Talalay combination index (U251 [31]) | Chou-Talalay combination index (KNS42) | Chou-Talalay combination index (SF539 [32]) | Chou-Talalay combination index (U87 [33]) | Chou-Talalay combination index (T98)
Nc1ccn([C@@H]2O[C@H](CO)[C@@H](O)C2(F)F)c(=O)n1 [Gemcitabine] + C[C@@H](Oc1cc(-c2cnn(C3CCNCC3)c2)cnc1N)c1c(Cl)ccc(F)c1Cl [Crizotinib] | 0.175 | 0 | 0.063 | 4.81 | 0 | 0.116 | 0.679 | 0.0351 | 0 | 0.179 | 0.0765 | 0.443 | 5.91 | 0 | 3.12 | 2.98 | 0 | 0.0421 | 1.93 | 1.25 | 0.488 | 7.67 | 0 | 3.33 | 7.75 | 2.44 | 0.0446 | 0.954 | 0.719 | 0.987 | 0.899 | 0.752 | 0.783 | 0.801 | 1.25 | 1.03
Nc1ccn([C@@H]2O[C@H](CO)[C@@H](O)C2(F)F)c(=O)n1 [Gemcitabine] + Cc1cc([C@@H](C)Nc2ccccc2C(=O)O)c2nc(N3CCOCC3)cc(=O)n2c1 [AZD6482] | 0.693 | 2.32 | 1.86 | 0 | 3.93 | 0.237 | 1.85 | 0.274 | 0 | 1.75 | 5.37 | 2.14 | 3.53 | 5.66 | 3.23 | 1.85 | 2.33 | 0 | 7.02 | 5.37 | 10.3 | 4.1 | 10.5 | 4.54 | 1.85 | 10.4 | 0 | 0.783 | 0.967 | 0.887 | 0.607 | 0.758 | 0.868 | 0.738 | 1.15 | 0.889
C=CCc1cccc(/C=N/NC(=O)CN2CCN(Cc3ccccc3)CC2)c1O [PAC-1] + CCOc1nc(NC(=O)Cc2cc(OC)ccc2OC)cc(N)c1C#N [JNK inhibitor VIII] | 1.09 | 0 | 0.51 | 0.0865 | 0 | 0 | 2.01 | 3.99 | 0.501 | 0.606 | 7.1 | 2.38 | 5.04 | 1.34 | 0.484 | 0.13 | 2.49 | 4.97 | 5.39 | 11.2 | 2.56 | 6.97 | 3.49 | 3.74 | 3.65 | 7.4 | 5.02 | 0.951 | 0.965 | 0.622 | 0.91 | 0.85 | 0.944 | 0.58 | 0.794 | 0.982
C=CCc1cccc(/C=N/NC(=O)CN2CCN(Cc3ccccc3)CC2)c1O [PAC-1] + Cc1cc([C@@H](C)Nc2ccccc2C(=O)O)c2nc(N3CCOCC3)cc(=O)n2c1 [AZD6482] | 0.355 | 2.36 | 0.918 | 10.9 | 5.94 | 8.49 | 1.75 | 0 | 2.96 | 0.594 | 2.36 | 1.77 | 14.6 | 10.2 | 10.2 | 1.75 | 0.0112 | 2.96 | 4.9 | 2.36 | 4.06 | 21.4 | 11.9 | 10.7 | 1.75 | 0.0112 | 2.96 | 0.979 | 0.845 | 0.962 | 0.976 | 0.847 | 0.882 | 1.01 | 0.635 | 0.865
CO[C@H]1C[C@@H]2CC[C@@H](C)[C@@](O)(O2)C(=O)C(=O)N2CCCC[C@H]2C(=O)O[C@H]([C@H](C)C[C@@H]2CC[C@@H](O)[C@H](OC)C2)CC(=O)[C@H](C)/C=C(\C)[C@@H](O)[C@@H](OC)C(=O)[C@H](C)C[C@H](C)/C=C/C=C/C=C/1C [Rapamycin] + C=CCc1cccc(/C=N/NC(=O)CN2CCN(Cc3ccccc3)CC2)c1O [PAC-1] | 0 | 5.47 | 0 | 0.0756 | 0 | 0 | 0.334 | 0.0748 | 0 | 5.45 | 13.7 | 3.97 | 7.67 | 0 | 0.274 | 0.233 | 3.72 | 0 | 5.88 | 14.1 | 4.75 | 8.87 | 1.1 | 0.274 | 0.552 | 4.8 | 0.71 | 0.962 | 1.24 | 1.03 | 0.925 | 0.927 | 0.607 | 0.975 | 1.01 | 1.13
CO[C@H]1C[C@@H]2CC[C@@H](C)[C@@](O)(O2)C(=O)C(=O)N2CCCC[C@H]2C(=O)O[C@H]([C@H](C)C[C@@H]2CC[C@@H](O)[C@H](OC)C2)CC(=O)[C@H](C)/C=C(\C)[C@@H](O)[C@@H](OC)C(=O)[C@H](C)C[C@H](C)/C=C/C=C/C=C/1C [Rapamycin] + CCOc1nc(NC(=O)Cc2cc(OC)ccc2OC)cc(N)c1C#N [JNK inhibitor VIII] | 0 | 1.98 | 0 | 0.0362 | 0.183 | 0 | 6.55 | 0 | 4.63 | 0.192 | 6.4 | 1.75 | 16.7 | 0.183 | 3.73 | 5.59 | 0.362 | 0.748 | 0.46 | 6.4 | 2.12 | 19.9 | 0.183 | 3.73 | 8.47 | 0.625 | 5.37 | 1.09 | 0.906 | 1.1 | 0.706 | 0.74 | 0.843 | 1.09 | 0.776 | 0.917
CO[C@H]1C[C@@H]2CC[C@@H](C)[C@@](O)(O2)C(=O)C(=O)N2CCCC[C@H]2C(=O)O[C@H]([C@H](C)C[C@@H]2CC[C@@H](O)[C@H](OC)C2)CC(=O)[C@H](C)/C=C(\C)[C@@H](O)[C@@H](OC)C(=O)[C@H](C)C[C@H](C)/C=C/C=C/C=C/1C [Rapamycin] + C[C@@H](Oc1cc(-c2cnn(C3CCNCC3)c2)cnc1N)c1c(Cl)ccc(F)c1Cl [Crizotinib] | 0.0254 | 3.73 | 0 | 0.128 | 0 | 0 | 5.62 | 0 | 11.2 | 8.2 | 18.6 | 5.03 | 9.67 | 0 | 0 | 26 | 3.24 | 16.4 | 8.72 | 19.5 | 5.07 | 10.4 | 0 | 0.00484 | 26.2 | 3.78 | 19.4 | 0.928 | 1.07 | 1 | 0.943 | 0.715 | 0.807 | 0.968 | 0.683 | 1.1
CO[C@H]1C[C@@H]2CC[C@@H](C)[C@@](O)(O2)C(=O)C(=O)N2CCCC[C@H]2C(=O)O[C@H]([C@H](C)C[C@@H]2CC[C@@H](O)[C@H](OC)C2)CC(=O)[C@H](C)/C=C(\C)[C@@H](O)[C@@H](OC)C(=O)[C@H](C)C[C@H](C)/C=C/C=C/C=C/1C [Rapamycin] + Cc1cc([C@@H](C)Nc2ccccc2C(=O)O)c2nc(N3CCOCC3)cc(=O)n2c1 [AZD6482] | 0.00824 | 1.42 | 0 | 3.78 | 0.59 | 1.1 | 1.43 | 0 | 0 | 3.35 | 2.6 | 2.56 | 21.8 | 12 | 9.55 | 1.43 | 5.95 | 0 | 3.85 | 2.6 | 3.28 | 25.2 | 14.4 | 12.4 | 1.43 | 6.85 | 0 | 1.02 | 0.643 | 1.16 | 0.75 | 0.927 | 0.912 | 1.05 | 0.974 | 0.924
